Patent US7659284B2, “Thiazolopyridine kinase inhibitors” (Janssen Pharmaceutica NV, priority 2004, dated 2010)

Key:
Assay type in all cases: biochemical
c-Src kinase (human) = target: T1, c-Src kinase (human) (Homo sapiens, UniProt P12931); experiment: c-Src Kinase Assay; conditions: for IC50: human c-Src, 5 μM ATP; for inhibition at 1.6 µM: test concentration (2) 1.6 μM, read-out: c-SRC percent inhibition
T1 construct: purchased Upstate Biotechnology, Lake Placid, N.Y
Description: […] a 10× kinase buffer (80 mM MOPS at pH 7.0, 2 mM EDTA and 100 mM Magnesium Chloride), ATP (5 μM final from a 10 mM stock), a Cdc2 peptide KVEKIGEGTYGVVYK (100 μM final from a 2.5 mM stock), γ-^33P ATP (10 μCi/μL stock) and water (20 μL/well) was added to each well of a Streptavidin Flashplate.
Test compound in 100% DMSO (0.5 μL) was added to the appropriate wells. Diluted c-Src kinase (human) (Upstate Biotechnology, Lake Placid, N.Y.) (diluted in a buffer consisting of 20 mM MOPS at pH 7.0, 1 mM EDTA, β-mercaptoethanol (0.1%), Brij-35 (0.01%), glycerol (5%), and 1 mg/mL bovine serum albumin) (2.5 μL) was added to the wells to initiate the reactions. The reaction plates were incubated at 30° C. for 40 min. The reaction was terminated by the addition of a 3% phosphoric acid solution (5 μL). The reaction product (10 μL) was spotted onto a P30 filtermat and washed for 5 minutes in phosphoric acid (75 mM). The wash sequence was repeated two more times, followed with one final wash in methanol. The plates were then dried, sealed and read on the TopCount scintillation counter after adding 30 μL scintillation fluid.
The percent inhibitions and IC50 values were derived according to the procedure described in Example 52. For those compounds without an IC50, the percent inhibition results are shown at a test concentration of ^(1)1 μM or ^(2)1.6 μM.

EGFR = target: T2, EGFR (Homo sapiens, UniProt P00533); experiment: EGFR Kinase Assay (GST-EGFR, 33P-ATP, Streptavidin Flashplate); conditions: for inhibition at 2 µM: test concentration of 2 μM, read-out: EGFR percent inhibition; for IC50: GST-EGFR intracellular portion, 5 μM ATP
T2 construct: started at nucleotide 2189 (corresponding to amino acid 667) and ended at the termination codon; made in house; host or cells: Sf9 insect cells (baculovirus)
Text: The EGFR kinase used was a fusion of Glutathione-S-Transferase (GST) and a PCR amplified intracellular portion of EGFR (NM_005228). The intracellular portion of EGFR started at nucleotide 2189 (corresponding to amino acid 667) and ended at the termination codon. The portion was PCR amplified with primers that added the lambda attB sequences to each end, recombined into an entry vector, then into a GST destination vector (as described in Gateway Technologies Manual by Invitrogen Corporation, Carlsbad, Calif.).
The destination vector was recombined in the DH10BAC strain of bacteria to produce a bacmid. The bacmid was transfected into Sf 9 cells and the supernatant containing the baculovirus was collected. The GSTEGFR protein was purified using large cultures of Sf 9 cells infected with stock virus. After an appropriate period of time, the cells were collected and lysed. The GSTEGFR was then purified from the lysate on Glutathione-Sepharose columns (as described by Amersham Biosciences, Buckinghamshire, United Kingdom).
The EGFR substrate was prepared by biotinylating polyGluTyr (128 mg) (Sigma, St. Louis, Mo.) in a 1×PBS buffer incubated together with a 12-fold molar excess of Sulfo-NHS-LC-Biotin on ice for at least 2 hrs. The free biotin was separated from the biotinylated polyGluTyr on a gel filtration column.
A mixture of a 10× kinase buffer (500 mM Tris at pH 8.0, 100 mM Magnesium Chloride and 1 mM Sodium Vanadate), DTT (1 mM final from 500 mM stock), ATP (5 μM final from 10 mM stock), biotinylated polyGluTyr (10 μg/μL stock), γ-^33P ATP (10 μCi/μL stock) and water was added to each well (90 μL/well) of a Streptavidin Flashplate (Perkin Elmer, Wellesley, Mass.).
Test compound in 100% DMSO (2 μL) was added to the appropriate wells. Diluted GSTEGFR (1:300 dilution in 50 mM Tris at pH 8.0 and 0.1% bovine serum albumin) (10 μL) was added to the wells to initiate the reactions.
The plates were incubated at 30° C. for 1 hr with shaking. The reacted contents were removed and the plates were sequentially washed three times with a 1×PBS stop buffer (300 μL without Magnesium and Calcium) and 100 mM EDTA. After the final wash, the same stop buffer (200 μL) was added to the wells. The plates were then sealed and read on the TopCount scintillation counter.
Test compounds were assayed in triplicate at 16 concentrations at half-log dilutions starting at 200 uM. A maximum and minimum signal for the assay was determined on each plate. The percent inhibition of a test compound was calculated accord to the formula
For a series of test concentrations, the IC50 was derived by graphing percent inhibition against the log of the concentrations tested for a given compound. For those compounds without an IC50, the percent inhibition results are shown at a test concentration of 2 μM.

HER-2 = target: T3, HER-2 (Homo sapiens, UniProt P04626); experiment: HER-2 Kinase Assay; conditions: GST-HER2 kinase, 1 μM ATP
T3 construct: the nucleotides encoding amino acids 679 to 1255 of HER-2; HIS6 with thrombin site (N); purchased Proqinase (Freiburg, Germany)
Description: The HER-2 kinase used was purified at Proqinase (Freiburg, Germany) from a construct that consisted of a fusion of GST (Glutathione-S-Transferase), HIS6-Thrombin and the nucleotides encoding amino acids 679 to 1255 of HER-2.
A mixture of a 10× kinase reaction buffer (600 mM Hepes at pH 7.5, 30 mM Magnesium Chloride, 0.03 mM Sodium Vanadate and 500 μg/mL PEG 20,000), DTT (1.2 mM final from a 10 mM stock), ATP (1 μM from a 10 mM stock), biotinylated polyGluTyr (1.5 ng/μL final from stock of 1 μg/μL prepared by Upstate Biotechnologies, Lake Placid, N.Y.), Manganese Chloride (3 mM final from a 1 M stock), γy-^33P-ATP (10 μCi/μL stock) and water (70 μL/well) was added to each well of a Streptavidin Flashplate (Cat. # SMP103, NEN, Boston, Mass.).
Test compound stock (1 μL) was added to the appropriate wells. Diluted GSTHER2 kinase (6.7 ng/μL diluted into 50 mM Tris-HCl at pH 8.0 and 0.1% bovine serum albumin) (30 μL) was added (total volume of 200 ng/well) to initiate the reactions.
The reaction plates were incubated at 30° C. for 1 hr. The reaction was terminated by aspirating the reaction mixture from the plate wells and washing the wells three times with a 1×PBS stop buffer (300 μL) and 100 mM EDTA. After the final wash, the same stop buffer (200 μL) was again added to the wells. The plates were then sealed and read on the TopCount scintillation counter.
The IC50 was derived according to the procedure described in Example 52. For those compounds without an IC50, the percent inhibition results are shown at a test concentration of 1 μM.

T2 sequence (P00533 667-1210 limits assumed): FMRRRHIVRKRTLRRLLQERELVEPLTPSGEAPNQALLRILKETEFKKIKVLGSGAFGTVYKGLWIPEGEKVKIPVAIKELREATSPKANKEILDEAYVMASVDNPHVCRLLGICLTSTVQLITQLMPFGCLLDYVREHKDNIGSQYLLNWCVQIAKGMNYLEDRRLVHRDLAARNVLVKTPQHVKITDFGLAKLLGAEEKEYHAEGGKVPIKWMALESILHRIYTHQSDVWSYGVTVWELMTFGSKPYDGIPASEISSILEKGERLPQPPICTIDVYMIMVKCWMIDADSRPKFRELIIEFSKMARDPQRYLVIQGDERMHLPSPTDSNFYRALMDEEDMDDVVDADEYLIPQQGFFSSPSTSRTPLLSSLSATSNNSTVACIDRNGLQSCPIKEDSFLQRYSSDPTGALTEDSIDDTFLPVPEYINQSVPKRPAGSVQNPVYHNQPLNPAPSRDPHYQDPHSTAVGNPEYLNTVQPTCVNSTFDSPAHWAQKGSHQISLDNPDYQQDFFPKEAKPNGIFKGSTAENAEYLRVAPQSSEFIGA
T1 sequence (P12931 whole entry): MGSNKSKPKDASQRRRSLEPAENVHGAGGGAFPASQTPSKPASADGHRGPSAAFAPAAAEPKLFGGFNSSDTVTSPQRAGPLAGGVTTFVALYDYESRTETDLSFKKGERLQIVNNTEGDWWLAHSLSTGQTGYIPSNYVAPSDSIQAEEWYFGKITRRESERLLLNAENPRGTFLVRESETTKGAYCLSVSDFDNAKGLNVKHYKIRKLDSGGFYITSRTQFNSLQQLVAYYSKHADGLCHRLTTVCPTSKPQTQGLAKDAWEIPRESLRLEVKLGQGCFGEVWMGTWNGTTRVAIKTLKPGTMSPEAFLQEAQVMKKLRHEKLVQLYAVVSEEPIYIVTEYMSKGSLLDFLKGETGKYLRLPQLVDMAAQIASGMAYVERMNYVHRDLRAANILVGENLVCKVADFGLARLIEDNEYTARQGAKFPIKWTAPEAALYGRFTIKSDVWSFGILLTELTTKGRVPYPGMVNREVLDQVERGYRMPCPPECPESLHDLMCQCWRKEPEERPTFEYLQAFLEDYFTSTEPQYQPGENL
T3 sequence (P04626 679-1255): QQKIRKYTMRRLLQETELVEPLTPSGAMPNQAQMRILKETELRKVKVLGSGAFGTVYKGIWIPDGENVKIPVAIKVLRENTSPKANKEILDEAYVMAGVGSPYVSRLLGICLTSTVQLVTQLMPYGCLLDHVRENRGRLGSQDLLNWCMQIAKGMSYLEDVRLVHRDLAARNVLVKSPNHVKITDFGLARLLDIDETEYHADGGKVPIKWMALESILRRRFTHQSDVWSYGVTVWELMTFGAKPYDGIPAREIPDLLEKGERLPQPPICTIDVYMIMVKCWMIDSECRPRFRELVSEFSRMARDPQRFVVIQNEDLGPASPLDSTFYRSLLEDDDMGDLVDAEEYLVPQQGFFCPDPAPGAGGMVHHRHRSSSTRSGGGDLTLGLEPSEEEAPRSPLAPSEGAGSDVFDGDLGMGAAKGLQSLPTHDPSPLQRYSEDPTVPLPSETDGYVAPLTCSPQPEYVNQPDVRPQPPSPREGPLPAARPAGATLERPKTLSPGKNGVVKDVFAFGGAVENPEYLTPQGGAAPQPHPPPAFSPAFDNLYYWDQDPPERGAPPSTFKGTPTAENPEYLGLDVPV

Row | SMILES | IC50 (c-Src kinase (human)) [µM] | inhibition at 2 µM (EGFR) [%] | inhibition at 1.6 µM (c-Src kinase (human)) [%] | IC50 (EGFR) [µM] | IC50 (HER-2) [µM]
1 | N#Cc1cnc2nc(Nc3ccc(CNC[C@H]4CCCO4)cc3)sc2c1Nc1c(Cl)ccc2c1OCO2 [Cpd 44, 7-(5-chloro-benzo[1,3]dioxol-4-ylamino)-2-[4-({[(2R)-tetrahydro-furan-2-ylmethyl]-amino}-methyl)-phenylamino]-thiazolo[4,5-b]pyridine-6-carbonitrile] | 0.126 | 47 | – | – | –
2 | COc1cc(Nc2nc3ncc(C#N)c(Nc4c(Cl)ccc5c4OCO5)c3s2)ccc1OCC1CCCCO1 (centres unmarked) [Cpd 43, 7-(5-chloro-benzo[1,3]dioxol-4-ylamino)-2-[3-methoxy-4-(tetrahydro-pyran-2-ylmethoxy)-phenylamino]-thiazolo[4,5-b]pyridine-6-carbonitrile] | > 100 | 4 | – | – | –
3 | CN1CCCC(COc2ccc(Nc3nc4ncc(C#N)c(Nc5c(Cl)ccc6c5OCO6)c4s3)cc2)C1 (centres unmarked) [Cpd 40, 7-(5-chloro-benzo[1,3]dioxol-4-ylamino)-2-[4-(1-methyl-piperidin-3-ylmethoxy)-phenylamino]-thiazolo[4,5-b]pyridine-6-carbonitrile] | 2.39 | 46 | – | – | –
4 | CN1CCCC(COc2ccc(Nc3nc4ncc(C#N)c(Sc5cccc(Br)c5)c4s3)cc2)C1 (centres unmarked) [Cpd 38, 7-(3-bromo-phenylsulfanyl)-2-[4-(1-methyl-piperidin-3-ylmethoxy)-phenylamino]-thiazolo[4,5-b]pyridine-6-carbonitrile] | – | – | 4 | 2.2 | –
5 | N#Cc1cnc2nc(Nc3ccc(CN4CCCC4)cc3)sc2c1Nc1ccc(F)c(Cl)c1 [Cpd 17, 7-(3-chloro-4-fluoro-phenylamino)-2-(4-pyrrolidin-1-ylmethyl-phenylamino)-thiazolo[4,5-b]pyridine-6-carbonitrile] | – | – | – | 0.0399 | 46
6 | COc1ccc(Cl)c(Nc2c(C#N)cnc3nc(Nc4ccc(OCC5CCCN(C)C5)cc4)sc23)c1 (centres unmarked) [Cpd 35, 7-(2-chloro-5-methoxy-phenylamino)-2-[4-(1-methyl-piperidin-3-ylmethoxy)-phenylamino]-thiazolo[4,5-b]pyridine-6-carbonitrile] | – | – | 11 | 0.461 | –
7 | CN1CCCC(COc2ccc(Nc3nc4ncc(C#N)c(Sc5ccc(F)cc5Cl)c4s3)cc2)C1 (centres unmarked) [Cpd 39, 7-(2-chloro-4-fluoro-phenylsulfanyl)-2-[4-(1-methyl-piperidin-3-ylmethoxy)-phenylamino]-thiazolo[4,5-b]pyridine-6-carbonitrile] | > 100 | – | – | 3.26 | –
8 | CN1CCN(Cc2ccc(Nc3nc4ncc(C#N)c(Nc5c(Cl)ccc6c5OCO6)c4s3)cc2)CC1 [Cpd 46, 7-(5-chloro-benzo[1,3]dioxol-4-ylamino)-2-[4-(4-methyl-piperazin-1-ylmethyl)-phenylamino]-thiazolo[4,5-b]pyridine-6-carbonitrile] | 0.389 | – | – | – | –
9 | CN1CCCC(COc2ccc(Nc3nc4ncc(C#N)c(Oc5ccc(Cl)cc5Cl)c4s3)cc2)C1 (centres unmarked) [Cpd 36, 7-(2,4-dichloro-phenoxy)-2-[4-(1-methyl-piperidin-3-ylmethoxy)-phenylamino]-thiazolo[4,5-b]pyridine-6-carbonitrile] | – | – | 4 | 8.76 | –
10 | C#Cc1cccc(Nc2c(C#N)cnc3nc(Nc4ccc(CN(C)C)cc4)sc23)c1 [Cpd 10, 2-(4-dimethylaminomethyl-phenylamino)-7-(3-ethynyl-phenylamino)thiazolo[4,5-b]pyridine-6-carbonitrile] | – | – | – | 0.0565 | 10
11 | N#Cc1cnc2nc(Nc3ccc(CN4CCCCC4)cc3)sc2c1Nc1c(Cl)ccc2c1OCO2 [Cpd 41, 7-(5-chloro-benzo[1,3]dioxol-4-ylamino)-2-(4-piperidin-1-ylmethyl-phenylamino)-thiazolo[4,5-b]pyridine-6-carbonitrile] | 0.079 | 44 | – | – | –
12 | CN1CCCC(COc2ccc(Nc3nc4ncc(C#N)c(Oc5cccc(OC(F)(F)F)c5)c4s3)cc2)C1 (centres unmarked) [Cpd 37, 2-[4-(1-methyl-piperidin-3-ylmethoxy)-phenylamino]-7-(3-trifluoromethoxy-phenoxy)-thiazolo[4,5-b]pyridine-6-carbonitrile] | – | – | 3 | 7.21 | –
13 | N#Cc1cnc2nc(Nc3ccc(CN4CCCC4)cc3)sc2c1Nc1c(Cl)ccc2c1OCO2 [Cpd 45, 7-(5-chloro-benzo[1,3]dioxol-4-ylamino)-2-(4-pyrrolidin-1-ylmethyl-phenylamino)-thiazolo[4,5-b]pyridine-6-carbonitrile] | 0.145 | – | – | – | –
14 | COc1cc(Nc2nc3ncc(C#N)c(Nc4c(Cl)ccc5c4OCO5)c3s2)ccc1OCCN1CCOCC1 [Cpd 42, 7-(5-chloro-benzo[1,3]dioxol-4-ylamino)-2-[3-methoxy-4-(2-morpholin-4-yl-ethoxy)-phenylamino]-thiazolo[4,5-b]pyridine-6-carbonitrile] | 1.38 | 18 | – | – | –
